Seven compounds from ChEMBL document CHEMBL1201862, “PubChem BioAssay data set” (2004) can be followed below.

Experiment [1] has as its system HEK293. The experiment is described as follows: inhibition of NOD1-driven NF-kB reporter – cell-based, luminescence, uHTS, primary screen (AID 1578). The class given is functional. The settings on record: Homo sapiens.
In experiment [2] the test system is HEK293. The experiment is described as follows: cells. The settings on record: Homo sapiens. The class given is functional, cell-based.
The subject of experiment [3] is HEK293. The experiment is described as follows: cells. The class given is functional, cell-based. The settings on record: Homo sapiens. The source holds these as a separate data set.
Experiment [4] deals with Nucleotide-binding oligomerization domain-containing protein 2 (Homo sapiens, UniProt Q9HC29). The experiment is described as follows: inhibition of NOD2-driven NF-kB reporter – cell-based, luminescence, uHTS, HEK293 (AID 1566). Format: functional.
Experiment [5] deals with HEK293. Briefly: NOD2 signaling inhibitors in MDP-stimulated cells, cell-based, uHTS, luminescence (AID 2001). The settings on record: Homo sapiens. Format: functional.
Experiment [6] concerns HEK293. Briefly: cells. The class given is functional, cell-based. To be noted: Homo sapiens. This is another data set of the same source.
Experiment [7] addresses Major prion protein (Homo sapiens, UniProt P04156). The class given is functional, cell-based.
Experiment [8] is described as follows: cells.
Experiment [9] concerns the target Voltage-dependent T-type calcium channel subunit alpha-1H (Homo sapiens, UniProt O95180). Briefly: human CACNA1H calcium influx blockade – cell-based, synthetic library set 1, calcium flux (AID 493022). The class given is functional.
Experiment [10] has as its target Hexokinase (Trypanosoma brucei, UniProt Q38C41). Briefly: Confirmation assay for inhibitors of Trypanosoma brucei hexokinase 1-Analogue-first series. [Related pubchem assays (depositor defined):AID1430, AID1632, AID2516, AID2560, AID2579, AID2600, AID449725, AID492951]. Format: functional.
The target in experiment [11] is T1, Coagulation factor XII (Homo sapiens, UniProt P00748).
T1 sequence (P00748 whole entry): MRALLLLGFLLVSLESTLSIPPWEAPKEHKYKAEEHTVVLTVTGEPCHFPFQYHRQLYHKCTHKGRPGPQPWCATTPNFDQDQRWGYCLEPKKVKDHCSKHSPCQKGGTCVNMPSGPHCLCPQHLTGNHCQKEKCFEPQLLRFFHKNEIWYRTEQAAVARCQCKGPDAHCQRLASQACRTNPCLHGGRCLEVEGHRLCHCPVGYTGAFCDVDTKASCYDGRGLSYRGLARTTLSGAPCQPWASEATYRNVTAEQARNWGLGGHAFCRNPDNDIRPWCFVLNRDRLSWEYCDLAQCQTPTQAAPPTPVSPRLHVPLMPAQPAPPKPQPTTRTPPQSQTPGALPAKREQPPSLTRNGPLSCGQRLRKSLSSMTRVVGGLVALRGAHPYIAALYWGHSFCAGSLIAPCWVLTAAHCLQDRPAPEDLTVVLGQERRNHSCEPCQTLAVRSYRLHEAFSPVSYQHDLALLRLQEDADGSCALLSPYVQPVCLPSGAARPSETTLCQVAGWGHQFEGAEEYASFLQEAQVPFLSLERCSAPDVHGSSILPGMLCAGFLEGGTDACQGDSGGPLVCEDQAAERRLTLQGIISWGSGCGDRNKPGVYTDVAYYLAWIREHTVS
Briefly: Factor XIIa Dose Response Confirmation from Single Well HTS. [Related pubchem assays (depositor defined):AID701]. The class given is functional.

The target in experiment [12] is Mu-type opioid receptor (Homo sapiens, UniProt P35372). Briefly: SAR Analysis of Antagonists of the MOR Receptor using an Image-Based Assay - Set 3. [Related pubchem assays (depositor defined):AID1777, AID1785, AID1786, AID1966, AID2133, AID2136, AID2284, AID2285, AID2420]. The class given is functional.
Experiment [13] concerns the target Delta-type opioid receptor (Homo sapiens, UniProt P41143). The experiment is described as follows: SAR Analysis of Antagonists of the DOR Receptor using an Image-Based Assay - Set 3. [Related pubchem assays (depositor defined):AID1777, AID1785]. Format: functional.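 Note: U2OS cells expressing DOR1 and beta-arrestin GFP stimulated with 100 nM SNC80; imaging of GFP-tagged beta-arrestin moving into spots after receptor activation.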
For experiment [14], the target named is T2, Kappa-type opioid receptor (Homo sapiens, UniProt P41145). Briefly: SAR analysis of small molecule antagonists of the kappa opioid receptor via a luminescent beta-arrestin assay - Set 3. [Related pubchem assays (depositor defined):AID1777, AID1778, AID1785, AID1786, AID1966, AID2133, AID2136, AID2285, AID2495]. Format: functional.
Experiment [15] concerns the target T2, Kappa-type opioid receptor. Briefly: SAR analysis of Antagonists of the Kappa Opioid Receptor (KOR) using an Image-Based Assay - Set 3. [Related pubchem assays (depositor defined):AID1777, AID1785]. Format: functional.
For experiment [16], the target named is T1, Coagulation factor XII. The experiment is described as follows: activated coagulation factor XII inhibitor potency, concentration-effect curve, cell-free (AID 716). The class given is functional.
The nature of experiment [17]: viability of PTEN-deleted HCT116 cells – cell-based, HCT116 PTEN knockout, dose response (AID 1047).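 Note: HCT116 colon tumor cells with PTEN knocked out; cells exposed to compound for 60 hours before readout; potency for loss of cell viability measured by luminescence.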 The class given is functional.
A short description of experiment [18]: viability of HCT116 lacking mutant beta-catenin – cell-based, human colon tumor, dose response (AID 1045).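 Note: HCT116 colon tumor cells with beta catenin knocked out; cells exposed to compound for 60 hours.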 The class given is functional.
A short description of experiment [19]: THP-1 cell cytotoxicity, dose response, cytotoxicity control for non-replicating M. tuberculosis project (AID 489025). Format: functional.
Experiment [20] in a line: HepG2 cell cytotoxicity, dose response, cytotoxicity control for non-replicating M. tuberculosis project (AID 489018). Format: functional. The settings on record: Mycobacterium tuberculosis.
The target of experiment [21] is T3, Caspase-3 (Homo sapiens, UniProt P42574).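 Note: Dose-response selectivity test against caspase-3 for candidate inhibitors of sentrin-specific proteases (SENPs).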
T3 sequence (P42574 whole entry): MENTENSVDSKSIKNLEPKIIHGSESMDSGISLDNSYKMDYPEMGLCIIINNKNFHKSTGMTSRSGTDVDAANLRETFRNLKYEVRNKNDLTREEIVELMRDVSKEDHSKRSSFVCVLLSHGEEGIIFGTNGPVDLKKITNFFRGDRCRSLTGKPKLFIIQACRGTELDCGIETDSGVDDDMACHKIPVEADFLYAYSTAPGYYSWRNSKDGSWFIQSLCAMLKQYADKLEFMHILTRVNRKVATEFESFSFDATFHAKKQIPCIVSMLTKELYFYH
Format: functional.

Experiment [22] is described as follows: Vero E6 cell cytotoxicity, dose response, cytotoxicity control for non-replicating M. tuberculosis project, secondary assay (AID 492998). The class given is functional, VeroE6. To be noted: Vero C1008.
Experiment [23] concerns the target T4, Sentrin-specific protease 7 (Homo sapiens, UniProt Q9BQF6).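 Note: Luminescence-based dose-response confirmation of ultra-high-throughput screening hits, measuring inhibition of SENP7.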
T4 sequence (Q9BQF6 whole entry): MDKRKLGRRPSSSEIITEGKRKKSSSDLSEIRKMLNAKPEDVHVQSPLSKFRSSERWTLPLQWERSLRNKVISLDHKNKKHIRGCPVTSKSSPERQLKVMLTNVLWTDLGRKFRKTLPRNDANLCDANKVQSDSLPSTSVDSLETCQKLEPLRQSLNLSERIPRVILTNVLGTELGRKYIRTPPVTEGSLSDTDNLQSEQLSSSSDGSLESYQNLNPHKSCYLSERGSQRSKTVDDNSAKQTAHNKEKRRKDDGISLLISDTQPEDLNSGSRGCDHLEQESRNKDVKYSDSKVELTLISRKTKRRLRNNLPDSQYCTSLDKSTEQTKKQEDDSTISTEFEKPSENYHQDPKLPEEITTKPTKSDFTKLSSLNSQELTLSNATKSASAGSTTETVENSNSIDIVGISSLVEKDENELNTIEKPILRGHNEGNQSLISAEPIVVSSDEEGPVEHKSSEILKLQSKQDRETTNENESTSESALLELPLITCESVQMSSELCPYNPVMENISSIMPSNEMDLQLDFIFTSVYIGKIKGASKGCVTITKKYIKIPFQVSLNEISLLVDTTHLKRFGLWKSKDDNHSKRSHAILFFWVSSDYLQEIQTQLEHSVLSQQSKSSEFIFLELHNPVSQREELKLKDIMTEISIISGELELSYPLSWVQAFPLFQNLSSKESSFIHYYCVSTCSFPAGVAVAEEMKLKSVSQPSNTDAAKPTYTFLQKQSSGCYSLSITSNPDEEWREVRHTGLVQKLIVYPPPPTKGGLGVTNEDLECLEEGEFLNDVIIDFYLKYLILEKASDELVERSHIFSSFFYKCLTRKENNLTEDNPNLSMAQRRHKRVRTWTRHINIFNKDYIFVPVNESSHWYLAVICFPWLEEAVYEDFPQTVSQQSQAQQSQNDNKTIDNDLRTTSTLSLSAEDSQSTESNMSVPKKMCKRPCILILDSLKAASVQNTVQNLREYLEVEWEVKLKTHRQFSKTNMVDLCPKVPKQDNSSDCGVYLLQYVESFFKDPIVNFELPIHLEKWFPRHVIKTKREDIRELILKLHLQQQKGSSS
The class given is functional.

Experiment [24] addresses T5, Sentrin-specific protease 6 (Homo sapiens, UniProt Q9GZR1).
T5 sequence (Q9GZR1 whole entry): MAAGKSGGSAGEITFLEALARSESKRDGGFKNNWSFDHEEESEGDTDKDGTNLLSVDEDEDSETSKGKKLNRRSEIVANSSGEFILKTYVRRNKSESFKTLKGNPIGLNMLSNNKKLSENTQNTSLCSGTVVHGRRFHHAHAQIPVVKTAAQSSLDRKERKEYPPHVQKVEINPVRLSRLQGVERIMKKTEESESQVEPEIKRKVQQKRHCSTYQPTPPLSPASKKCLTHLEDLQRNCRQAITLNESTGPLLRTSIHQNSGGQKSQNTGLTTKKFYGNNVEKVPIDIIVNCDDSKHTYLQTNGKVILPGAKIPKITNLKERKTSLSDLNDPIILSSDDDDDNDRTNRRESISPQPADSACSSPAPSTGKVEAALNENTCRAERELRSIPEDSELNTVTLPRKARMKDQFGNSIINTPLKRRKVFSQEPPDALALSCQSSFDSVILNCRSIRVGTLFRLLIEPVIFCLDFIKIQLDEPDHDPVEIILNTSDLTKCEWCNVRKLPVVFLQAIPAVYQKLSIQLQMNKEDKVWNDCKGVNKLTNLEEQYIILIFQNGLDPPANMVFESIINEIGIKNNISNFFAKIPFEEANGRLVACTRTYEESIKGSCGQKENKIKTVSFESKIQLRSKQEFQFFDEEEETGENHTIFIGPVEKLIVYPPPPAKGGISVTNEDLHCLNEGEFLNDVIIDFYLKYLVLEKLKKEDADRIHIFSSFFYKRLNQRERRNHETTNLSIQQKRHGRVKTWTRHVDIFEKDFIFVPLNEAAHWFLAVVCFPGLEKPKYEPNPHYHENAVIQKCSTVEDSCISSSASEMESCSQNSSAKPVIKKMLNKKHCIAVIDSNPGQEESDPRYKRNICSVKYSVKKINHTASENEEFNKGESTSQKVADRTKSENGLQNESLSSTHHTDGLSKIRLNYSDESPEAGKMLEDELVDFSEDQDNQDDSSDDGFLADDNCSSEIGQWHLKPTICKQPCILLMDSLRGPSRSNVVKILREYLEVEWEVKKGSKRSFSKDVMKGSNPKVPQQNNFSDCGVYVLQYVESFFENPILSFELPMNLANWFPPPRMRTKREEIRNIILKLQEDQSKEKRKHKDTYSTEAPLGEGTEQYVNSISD
The class given is functional.

Experiment [25] addresses T6, Sentrin-specific protease 8 (Homo sapiens, UniProt Q96LD8).
T6 sequence (Q96LD8 whole entry): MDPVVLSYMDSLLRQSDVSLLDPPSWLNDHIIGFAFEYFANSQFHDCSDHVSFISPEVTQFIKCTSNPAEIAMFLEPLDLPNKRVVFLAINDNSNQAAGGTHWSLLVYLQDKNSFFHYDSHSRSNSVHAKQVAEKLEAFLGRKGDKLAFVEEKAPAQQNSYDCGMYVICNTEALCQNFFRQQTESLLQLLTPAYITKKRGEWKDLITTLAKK
The class given is functional.

Experiment [26] concerns INS1. Briefly: INS-1E survival protection against cytokine death – cell-based, luminescence, retest, dose response (AID 449756).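 Note: cell death triggered by IL-1 beta plus TNF-alpha plus IFN-gamma mixture; protective hits raise ATP signal compared with cytokine alone wells.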 Format: functional. The settings on record: Rattus norvegicus.
The target in experiment [27] is Photoreceptor-specific nuclear receptor (Homo sapiens, UniProt Q9Y5X4). The class given is functional, cell-based.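 Note: CHO-S cells with Gal4-NCOR and VP16-NR2E3 two-hybrid luciferase reporter.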

Activity calls are given as the source filed them. A value given as a limit tells only on which side of the number the result lay.

As to `Cc1nc2c(Br)cc(Br)cc2cc1O`, the EC50 – broadly, the midpoint of the concentration-response curve – in experiment [1] was 11.4 µM (active); in [4], 13.2 µM (active). Moreover, the IC50 (commonly the concentration that inhibits the measured activity by half) was 6.3 µM (active) in [2]; > 20 µM (inactive) in [3]; 6.68 µM (active) in [5]; > 20 µM (inactive) in experiment [6]; 1.36 µM (active) in experiment [7]; > 138 µM (inactive) in experiment [8].

Regarding `Cc1ccc(-c2nnc(NC(=O)COc3ccc(Cl)cc3)o2)cc1C`, the EC50 in experiment [9] is 1.4 µM (active).

Consider `COc1ccccc1-n1sc2ccccc2c1=O`, for which the IC50 in experiment [10] is 7.9 µM (active).

As to `COc1ccc(/C=c2/sc3n(c2=O)NC2(c4ccccc4)N(C)C(=O)N(C)C2(c2ccccc2)N=3)cc1` (configuration not stated), the IC50 in experiment [11] is > 50 µM (inactive).

As for `Cc1cccc(S(=O)(=O)NCc2ccc(C(=O)NCCN(Cc3ccccc3)Cc3ccccc3)cc2)c1`, the IC50 in experiment [12] was > 32 µM (inactive); in experiment [13], > 32 µM (inactive); in experiment [14], > 20 µM (inactive); in [15] it was > 32 µM (inactive).

`CC(C)CCn1c(=S)[nH]c2ncccc2c1=O`: the IC50 in [16] was > 50 µM (inactive).

For `COc1ccccc1-n1c(=O)oc2ccc(Cl)cc2c1=O`, the EC50 in experiment [17] is 11.7 µM (active); in [18], 11.9 µM (active). The values for the CC50 in experiment [19], in experiment [20] and in experiment [22] were 19.8 µM (active), > 20 µM (active) and > 20 µM (active), respectively. For the same compound, the IC50 was 26.9 µM (active) in experiment [21]; 11.5 µM (active) in experiment [23]; 16.5 µM (active) in experiment [24]; 22.6 µM (active) in experiment [25]; 5.1 µM (active) in experiment [27]. Moreover, in [26], the AC50 (usually the midpoint of the concentration-response curve, whichever way the signal moves) is 8.62 µM (active).
